# Measurements: patent publication US20220273659A1, “HETEROCYCLIC COMPOUNDS AS KINASE INHIBITORS” (NUVATION BIO INC., priority 2019, published 2022)
# Columns and labels:
# FMS kinase = target: T1, FMS kinase (Homo sapiens, UniProt P07333); assay: LanthaScreen Eu Kinase Binding Assay (ATP, fluorescent-PolyGT substrate); format: biochemical
# T1 construct: purchased Invitrogen (Life Technologies)
# Method: IC50 values of compounds against FMS kinase were determined by LanthaScreen™ Eu Kinase Binding Assay at Invitrogen (Life Technologies Grand Island, N.Y.) where total reaction volume was 10 μL in low-volume 384-well plates (#4511, Corning). Serially diluted compounds (3-fold) were incubated with kinase (1.25 nM) for 10 min, following which a mixture of ATP (10 μM) (#A1852, Sigma, St-Louis, Mo.) and fluorescent-PolyGT substrate (200 nM) (#PV3610, Invitrogen, Life Technologies Grand Island, N.Y.) was added and incubated in dark at room temperature for 1H. After 1H, 10 μL stop solution containing Terbium labeled antibody (4 nM) (#PV3529, Invitrogen, Life Technologies Grand Island, N.Y.) and EDTA (#E5134, Sigma, St-Louis, Mo.) (20 mM) in TR-FRET dilution buffer (#PV3574, Invitrogen, Life Technologies Grand Island, N.Y.) was added. Readings were taken in a Synergy Neo Plate reader (BioTek, Winooski) at single excitation of 340 nm and Dual emission at 495 nm and 520 nm respectively.
# The following equations were used for LanthaScreen Eu Kinase Binding Assay Data Analysis. Percent inhibition (100-% activity) was fitted to the “four-parameter logistic model” in XLfit for determination of IC50 values.
# PI3Kδ kinase = target: T2, PI3Kδ kinase (Homo sapiens, UniProt O00329); assay: PI3Kδ kinase assay (ADP-Glo, Reaction Biology); format: biochemical
# T2 construct: purchased Reaction Biology Corporation (assay service)
# T2 sequence (O00329 whole entry): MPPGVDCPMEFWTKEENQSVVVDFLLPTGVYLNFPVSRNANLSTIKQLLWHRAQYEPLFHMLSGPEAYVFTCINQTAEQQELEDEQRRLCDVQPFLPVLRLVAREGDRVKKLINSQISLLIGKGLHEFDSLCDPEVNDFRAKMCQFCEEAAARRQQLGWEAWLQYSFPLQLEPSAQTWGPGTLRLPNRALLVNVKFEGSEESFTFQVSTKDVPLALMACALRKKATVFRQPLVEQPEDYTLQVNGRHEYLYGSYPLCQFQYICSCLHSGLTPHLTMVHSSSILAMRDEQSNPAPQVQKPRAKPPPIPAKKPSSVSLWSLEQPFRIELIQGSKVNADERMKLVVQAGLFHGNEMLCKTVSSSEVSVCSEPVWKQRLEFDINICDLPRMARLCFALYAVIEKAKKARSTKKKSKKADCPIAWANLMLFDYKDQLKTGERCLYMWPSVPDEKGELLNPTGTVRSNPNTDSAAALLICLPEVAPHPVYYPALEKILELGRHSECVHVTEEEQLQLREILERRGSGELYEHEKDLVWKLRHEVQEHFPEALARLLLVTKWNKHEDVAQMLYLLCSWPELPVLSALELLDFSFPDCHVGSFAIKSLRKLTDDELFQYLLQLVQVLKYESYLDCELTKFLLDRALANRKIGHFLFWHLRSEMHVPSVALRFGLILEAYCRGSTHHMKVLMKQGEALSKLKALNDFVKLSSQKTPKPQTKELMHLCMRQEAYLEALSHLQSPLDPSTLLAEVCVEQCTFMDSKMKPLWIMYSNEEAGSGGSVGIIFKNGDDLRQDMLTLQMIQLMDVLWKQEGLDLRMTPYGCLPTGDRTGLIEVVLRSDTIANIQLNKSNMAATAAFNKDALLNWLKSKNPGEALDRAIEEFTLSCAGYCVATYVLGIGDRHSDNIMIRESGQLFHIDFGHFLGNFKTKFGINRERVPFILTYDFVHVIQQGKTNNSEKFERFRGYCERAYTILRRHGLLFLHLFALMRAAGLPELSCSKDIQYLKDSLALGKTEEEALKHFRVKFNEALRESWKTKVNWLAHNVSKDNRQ
# T2 sequence (P27986 whole entry partner): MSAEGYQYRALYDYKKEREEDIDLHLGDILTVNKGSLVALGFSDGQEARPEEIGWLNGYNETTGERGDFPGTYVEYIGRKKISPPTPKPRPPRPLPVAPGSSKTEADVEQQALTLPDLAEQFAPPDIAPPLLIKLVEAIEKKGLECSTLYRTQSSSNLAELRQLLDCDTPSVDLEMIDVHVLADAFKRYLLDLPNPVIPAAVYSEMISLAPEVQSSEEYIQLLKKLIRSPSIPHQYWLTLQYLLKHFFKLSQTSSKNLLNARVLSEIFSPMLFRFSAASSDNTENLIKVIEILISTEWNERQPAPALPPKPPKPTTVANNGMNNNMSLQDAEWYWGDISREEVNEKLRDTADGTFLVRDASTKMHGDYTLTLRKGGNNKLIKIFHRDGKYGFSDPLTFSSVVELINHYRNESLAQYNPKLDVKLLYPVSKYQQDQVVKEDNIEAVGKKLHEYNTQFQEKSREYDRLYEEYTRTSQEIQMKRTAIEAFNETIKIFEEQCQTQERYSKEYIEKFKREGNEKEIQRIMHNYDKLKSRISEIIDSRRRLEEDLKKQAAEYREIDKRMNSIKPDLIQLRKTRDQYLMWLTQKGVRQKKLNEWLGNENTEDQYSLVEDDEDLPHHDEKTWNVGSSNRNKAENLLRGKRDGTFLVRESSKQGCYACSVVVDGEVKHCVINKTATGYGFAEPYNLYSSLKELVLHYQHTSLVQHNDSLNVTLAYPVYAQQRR
# Method: IC50 values of compounds against the PI3Kδ kinase were determined by an assay performed by Reaction Biology Corporation (Malvern, Pa.). Briefly, this assay was conducted in buffer (Tris-HCl 40 mM (pH7.5), Orthovanadate 3 mM, MgCl2 20 mM, DTT 2 mM, CHAPS 0.05%, DMSO 1%). PI3Kδ kinase was added to the reaction solution and mixed gently. The test compounds in 100% DMSO (at specific solutions) were mixed with the kinase reaction mixture to achieve the final compounds at pre-defined concentrations (e.g., range −0.5 nM to 100 μM) by Acoustic technology (Echo550; nanoliter range). After incubating for 10 min at room temp, ATP was added into the reaction mixture to initiate the reaction followed by a 30-min incubation at 30° C. After quenching the reaction with ADP-Glo reagent, the plates were incubated for 40 min. The Detection Mixture was added, and the plate was incubated for an additional 30 min. At the end of incubation, luminescence was measured. For data analysis, the luminescence was converted into μM ADP production based on ADP standard curves. The nonlinear regression to obtain the standard curve and IC50 values was performed using GraphPad Prism (GraphPad Software, Inc., San Diego, Calif.).
# CDK4 = target: T3, CDK4 (Homo sapiens, UniProt P11802); assay: In vitro kinase inhibition IC50, luminescence (ADP Glo), retinoblastoma substrate; format: biochemical; settings: read-out: CDK4/D1 IC50
# T3 construct: purchased Invitrogen PR8064A
# T3 sequence (P11802 whole entry): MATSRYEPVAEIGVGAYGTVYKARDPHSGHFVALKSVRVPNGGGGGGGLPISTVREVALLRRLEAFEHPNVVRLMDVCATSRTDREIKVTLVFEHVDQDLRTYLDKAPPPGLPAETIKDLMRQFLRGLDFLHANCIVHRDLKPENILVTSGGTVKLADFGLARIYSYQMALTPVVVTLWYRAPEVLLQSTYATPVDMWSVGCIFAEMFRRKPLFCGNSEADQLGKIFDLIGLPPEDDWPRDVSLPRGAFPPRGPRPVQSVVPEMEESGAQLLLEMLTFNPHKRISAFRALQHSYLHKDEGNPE
# T3 sequence (P24385 whole entry partner): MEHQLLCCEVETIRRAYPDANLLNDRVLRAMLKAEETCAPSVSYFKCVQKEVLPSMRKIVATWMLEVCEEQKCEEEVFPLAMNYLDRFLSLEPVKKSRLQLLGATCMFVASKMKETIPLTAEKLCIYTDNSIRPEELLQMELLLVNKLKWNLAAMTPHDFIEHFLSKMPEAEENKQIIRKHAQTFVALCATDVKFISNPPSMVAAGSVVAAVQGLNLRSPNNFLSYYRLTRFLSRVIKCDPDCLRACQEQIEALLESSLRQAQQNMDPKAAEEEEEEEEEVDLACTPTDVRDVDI
# Method: (§1) IC50 values of compounds against CDK4 and CDK6 were determined by luminescence using retinoblastoma as substrate. Kinase assays were performed in kinase buffer (#PV6135, Invitrogen Life Technologies, Grand Island, N.Y.) where total reaction volume was […] in 96-well half area white plates (#3693, Costar). One microliter of 25×test compounds at specific concentrations (e.g., final concentration range: 0.1 nM-200 nM) was mixed with 10 μL of 2.5×kinase (5 nM, CDK4 #PR8064A and CDK6 #PR8422B, Invitrogen) solution and 14 μL of 4× mixed solution with retinoblastoma (1 μM, #12-439, EMD Millipore, Hayward, Calif.) and ATP (25 μM, #V7038, Promega, Madison, Wis.). The plates were covered and incubated for 2H at room temperature. At the end of incubation, 25 μL of stop solution—ADP Glo reagent (#V7002, Promega) was added. After incubation for 45 min at room temperature, 50 μL of detection reagent (##V7002, Promega) was added. Readings were taken at 15 min and 45 min incubation after detection reagent was added in a Synergy Neo Plate reader (BioTek, Winooski, Vt.) at single excitation of 340 nm and Dual emission at 495 nm and 520 nm respectively. The following equations were used in the CDK4 and CDK6 assay data analysis. Percent inhibition (100-% activity) was fitted to the “four-parameter logistic model” in XLfit for determination of IC50 values.
# (§2) Percent conversion of enzyme=100−{(RLUNo Drug−No enzyme*100)/RLUNo drug+Enzyme} Equation 1:
# (§3) Percent conversion at each data point=100−{(RLUAverage(Drug+enzyme)*100)!RLUNo drug+Enzyme} Equation 2:
# (§4) Percent Inhibition=100*(% Conversioneach data point/% ConversionEnzyme) Equation 3: […]
# CDK6 = target: T4, CDK6 (Homo sapiens, UniProt Q00534); assay: as above; format: biochemical; settings: read-out: CDK6/D1 IC50
# T4 construct: purchased Invitrogen PR8422B
# T4 sequence (Q00534 whole entry): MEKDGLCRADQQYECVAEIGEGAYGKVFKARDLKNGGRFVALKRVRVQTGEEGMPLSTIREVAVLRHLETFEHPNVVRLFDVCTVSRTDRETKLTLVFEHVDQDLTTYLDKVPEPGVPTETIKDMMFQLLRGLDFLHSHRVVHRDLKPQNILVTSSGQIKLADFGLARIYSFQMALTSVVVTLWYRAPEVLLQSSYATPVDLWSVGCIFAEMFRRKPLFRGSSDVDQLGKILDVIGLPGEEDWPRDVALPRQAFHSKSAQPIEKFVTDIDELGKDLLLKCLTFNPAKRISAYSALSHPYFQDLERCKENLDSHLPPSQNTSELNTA
# T4 sequence (P24385 whole entry partner): as the sequence (P24385 whole entry partner) above
# Method: as §1, §2, §3, §4
# [1] = system: MCF-7 breast adenocarcinoma cells; assay: Cancer cell proliferation assay, single agent (cell viability); format: cell-based; settings: Homo sapiens, MCF7, Table 4; Rb positive; treatment 144 Hr with medium change at 72 Hr; Cell Titer-Glo or resazurin
# Method: (§5) The effects of test compounds were studied in three breast cancer cell lines of different subtype. The cancer cells (Table 3) were harvested during the logarithmic growth period and counted. Cell concentrations were adjusted to the appropriate number with respective medium and 90 μL cell suspensions were added to 96-well plates. After cells were seeded, the plates were shaken gently to distribute cells evenly and incubated at 37° C., 5% CO2 on day 1.
# (§6) Cells were treated with test compounds at 7 to 9 concentrations within a desired concentration range (e.g. 1.1 nM-10 μM) on day 2 by series diluting the test compound stock solution (10 mM in DMSO) with culture medium. Treatment duration was 24 Hr for BT-549 cells and 144 Hr (with a medium change at 72 Hr) for MCF-7 and DU4475 cells. Cell viability was assessed by Cell Titer-Glo® as recommended by Promega (Cat. No.: G7572), or by resazurin assay (Sigma Aldrich, Cat. No.: R7017) post treatment.
# (§7) Cell viability data were plotted using GraphPad Prism (GraphPad Software, Inc., San Diego, Calif.). In addition, a nonlinear regression model with a sigmoidal dose response and variable slope within GraphPad Prism was used to calculate the IC50 value of individual test compounds.
# [2] = system: DU4475 breast carcinoma cells; assay: as above; format: cell-based; settings: Homo sapiens, DU-4475; Table 4; Rb negative; treatment 144 Hr with medium change at 72 Hr; Cell Titer-Glo or resazurin
# Method: as §5, §6, §7
# T1 sequence (P07333 20-972): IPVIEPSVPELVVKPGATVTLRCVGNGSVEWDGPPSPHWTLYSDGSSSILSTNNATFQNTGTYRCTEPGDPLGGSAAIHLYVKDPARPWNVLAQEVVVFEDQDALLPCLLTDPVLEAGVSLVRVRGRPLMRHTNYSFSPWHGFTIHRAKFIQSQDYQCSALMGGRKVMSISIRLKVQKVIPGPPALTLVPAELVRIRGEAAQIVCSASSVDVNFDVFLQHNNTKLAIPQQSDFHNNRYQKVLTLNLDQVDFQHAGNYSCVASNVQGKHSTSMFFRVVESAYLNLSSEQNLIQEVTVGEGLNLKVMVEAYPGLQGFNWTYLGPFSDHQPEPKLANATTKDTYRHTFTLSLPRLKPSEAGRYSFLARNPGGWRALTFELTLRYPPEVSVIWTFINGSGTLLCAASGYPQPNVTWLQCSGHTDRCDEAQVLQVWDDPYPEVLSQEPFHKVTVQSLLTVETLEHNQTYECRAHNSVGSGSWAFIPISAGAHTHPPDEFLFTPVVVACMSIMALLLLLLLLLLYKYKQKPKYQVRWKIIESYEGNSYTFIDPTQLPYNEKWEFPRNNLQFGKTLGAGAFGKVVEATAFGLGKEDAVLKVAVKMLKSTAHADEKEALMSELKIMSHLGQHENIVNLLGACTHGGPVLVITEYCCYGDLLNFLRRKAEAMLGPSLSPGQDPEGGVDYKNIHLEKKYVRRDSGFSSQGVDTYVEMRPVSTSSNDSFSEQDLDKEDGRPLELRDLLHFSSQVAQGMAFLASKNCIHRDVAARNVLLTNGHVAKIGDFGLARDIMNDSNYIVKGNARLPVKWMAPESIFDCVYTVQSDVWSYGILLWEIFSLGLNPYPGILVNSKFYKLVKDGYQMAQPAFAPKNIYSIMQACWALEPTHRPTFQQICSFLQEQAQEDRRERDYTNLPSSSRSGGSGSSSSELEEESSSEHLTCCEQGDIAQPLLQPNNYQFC
IC50 (FMS kinase) [nM],IC50 (PI3Kδ kinase) [nM],IC50 (CDK4) [nM],IC50 (CDK6) [nM],IC50 [1] [nM],IC50 [2] [nM],Compound
8,–,–,–,–,–,"C[C@H]1CC[C@H](n2c(=O)c(C#N)cc3cnc(Nc4ccc5c(c4)C(=O)NCC5)nc32)CC1 [Compound No. 7, 8-((1r,4r)-4-methylcyclohexyl)-7-oxo-2-((1-oxo-1,2,3,4-tetrahydroisoquinolin-7-yl)amino)-7,8-dihydropyrido[2,3-d]pyrimidine-6-carbonitrile]"
–,2460,–,–,–,–,"CC1(C)CNCc2cc(Nc3ncc4cc(C#N)c(=O)n(C5CCCC5)c4n3)ccc21 [Compound No. 8, 8-cyclopentyl-2-((4,4-dimethyl-1,2,3,4-tetrahydroisoquinolin-7-yl)amino)-7-oxo-7,8-dihydropyrido[2,3-d]pyrimidine-6-carbonitrile]"
74,–,> 200,> 200,1420,–,"N#Cc1cc2cnc(Nc3cccc(S(=O)(=O)N4CCC(O)CC4)c3)nc2n(C2CCCC2)c1=O [Compound No. 18, 8-cyclopentyl-2-((3-((4-hydroxypiperidin-1-yl)sulfonyl)phenyl)amino)-7-oxo-7,8-dihydropyrido[2,3-d]pyrimidine-6-carbonitrile]"
< 1,–,35,38,2360,–,"N#Cc1cc2cnc(Nc3ccc4c(c3)NC(=O)C4)nc2n(C2CCCC2)c1=O [Compound No. 19, 8-cyclopentyl-7-oxo-2-((2-oxoindolin-6-yl)amino)-7,8-dihydropyrido[2,3-d]pyrimidine-6-carbonitrile]"
99,–,> 200,> 200,1050,–,N#Cc1cc2cnc(Nc3cccc(S(=O)(=O)N4CCOCC4)c3)nc2n(C2CCCC2)c1=O [Compound No. 20]
53,–,70.5,7,750,12400,"CC1CN(c2ccc(Nc3ncc4cc(C#N)c(=O)n(C5CCCC5)c4n3)nc2)CCN1 (centres unmarked) [Compound No. 23, 8-cyclopentyl-2-((5-(3-methylpiperazin-1-yl)pyridin-2-yl)amino)-7-oxo-7,8-dihydropyrido[2,3-d]pyrimidine-6-carbonitrile]"
6,–,42,6,533,–,"N#Cc1cc2cnc(Nc3ccc(N4CCNCC4)cc3F)nc2n(C2CCCC2)c1=O [Compound No. 26, 8-cyclopentyl-2-((2-fluoro-4-(piperazin-1-yl)phenyl)amino)-7-oxo-7,8-dihydropyrido[2,3-d]pyrimidine-6-carbonitrile]"
6.5,–,39,13,6310,–,"CN1CCn2nc(Nc3ncc4cc(C#N)c(=O)n(C5CCCC5)c4n3)cc2C1 [Compound No. 52, 8-cyclopentyl-2-((5-methyl-4,5,6,7-tetrahydropyrazolo[1,5-a]pyrazin-2-yl)amino)-7-oxo-7,8-dihydropyrido[2,3-d]pyrimidine-6-carbonitrile]"
–,295,128,22,498,870,"CCC(C)n1c(=O)c(C#N)cc2cnc(Nc3ccc4c(c3)CCNC4)nc21 (centres unmarked) [Compound No. 80, 8-(sec-butyl)-7-oxo-2-((1,2,3,4-tetrahydroisoquinolin-6-yl)amino)-7,8-dihydropyrido[2,3-d]pyrimidine-6-carbonitrile]"

# Second part, the compound before the results:
Compound,IC50 (FMS kinase) [nM],IC50 (PI3Kδ kinase) [nM],IC50 (CDK4) [nM],IC50 (CDK6) [nM],IC50 [1] [nM],IC50 [2] [nM]
"CN1CCN(C(=O)c2cccc(Nc3ncc4cc(C#N)c(=O)n(C5CCCC5)c4n3)c2)CC1 [Compound No. 16, 8-cyclopentyl-2-((3-(4-methylpiperazine-1-carbonyl)phenyl)amino)-7-oxo-7,8-dihydropyrido[2,3-d]pyrimidine-6-carbonitrile]",7,–,> 200,> 200,6020,–
"CN1CCN(S(=O)(=O)c2cccc(Nc3ncc4cc(C#N)c(=O)n(C5CCCC5)c4n3)c2)CC1 [Compound No. 17, 8-cyclopentyl-2-((3-((4-methylpiperazin-1-yl)sulfonyl)phenyl)amino)-7-oxo-7,8-dihydropyrido[2,3-d]pyrimidine-6-carbonitrile]",53,–,> 200,> 200,3230,–
"N#Cc1cc2cnc(Nc3ccc4c(c3)C(=O)NC4)nc2n(C2CCCC2)c1=O [Compound No. 24, 8-cyclopentyl-7-oxo-2-((3-oxoisoindolin-5-yl)amino)-7,8-dihydropyrido[2,3-d]pyrimidine-6-carbonitrile]",5,–,> 200,35,> 30000,–
"CC1CCN(c2ccc(Nc3ncc4cc(C#N)c(=O)n(C5CCCC5)c4n3)cc2)CC1 [Compound No. 25, 8-cyclopentyl-2-((4-(4-methylpiperidin-1-yl)phenyl)amino)-7-oxo-7,8-dihydropyrido[2,3-d]pyrimidine-6-carbonitrile]",13,–,> 200,38,> 30000,–
"N#Cc1cc2cnc(Nc3cc(F)c(N4CCNCC4)c(F)c3)nc2n(C2CCCC2)c1=O [Compound No. 27, 8-cyclopentyl-2-((3,5-difluoro-4-(piperazin-1-yl)phenyl)amino)-7-oxo-7,8-dihydropyrido[2,3-d]pyrimidine-6-carbonitrile]",3.5,–,18,3.5,138,–
"N#Cc1cc2cnc(Nc3cnn(C4CCC(O)CC4)c3)nc2n(C2CCCC2)c1=O (centres unmarked) [Compound No. 51, 8-cyclopentyl-2-((1-(4-hydroxycyclohexyl)-1H-pyrazol-4-yl)amino)-7-oxo-7,8-dihydropyrido[2,3-d]pyrimidine-6-carbonitrile]",1,–,91,42,570,–
